{"source": "patent US20230263851A1", "about": "“PROTECTIVE FORMULATIONS” (priority 2022, published 2023)", "system": "upside-down jellyfish, family Cassiopeidae", "assay": "In vivo field study: perceived stinging sensation after contact with upside-down jellyfish", "settings": "for Sting score, Upper arm, left: skin location upper arm; for Average Sting Score: average over tested skin locations; for Sting score, Lower arm, left: perceived sting: 0 no sting, compound in SPF15 TeekaTan oil-in-water sunscreen base, skin location lower arm; for Sting score, Left calf: skin location left calf; for Reduction of the stinging sensation (in words): summary of the field study", "protocol": "An in-vivo field study was performed using upside-down jellyfish, family Cassiopeidae. Rubidium iodide and dl-menthol were compared to lanthanide salts and another alkali salt, cesium iodide, for their ability to reduce the dermal irritation following contact with stinging Cnidaria. The base formulation was a commercial SPF15 “TeekaTan™” chemical oil-in-water sunscreen. The null was bare skin. The test subjects reported their perceived stinging sensation from the venomous cassiosomes as no sting (score 0), mild sting (score 1), definite sting (score 2).", "key": {"[1]": {"settings": "0 no sting, 1 mild sting, 2 definite sting, SPF15 sunscreen base"}}, "data": [{"smiles": "[Cl][Pr]([Cl])[Cl]", "note": "[PrCl3, reference compound]", "values": [{"measurement": "Sting score, Upper arm, left", "setting": "[1]", "value": 0}, {"measurement": "Average Sting Score", "setting": "[1]", "value": 1.00}, {"measurement": "Sting score, Lower arm, left", "setting": "1 mild sting, 2 definite sting", "value": 2}]}, {"smiles": "[Cl][Nd]([Cl])[Cl]", "note": "[NdCl3, reference compound]", "values": [{"measurement": "Average Sting Score", "setting": "[1]", "value": 2.00}, {"measurement": "Sting score, Lower arm, left", "setting": "1 mild sting, 2 definite sting", "value": 2}]}, {"smiles": "[I-].[Rb+]", "note": "[RuI, rubidium iodide]", "values": [{"measurement": "Sting score, Left arm joint", "setting": "0 no sting, 1 mild sting, 2 definite sting, SPF15 sunscreen base, skin location left arm joint", "value": 0}, {"measurement": "Sting score, Left calf", "setting": "[1]", "value": 0}, {"measurement": "Sting score, Upper arm, left", "setting": "[1]", "value": 0}, {"measurement": "Average Sting Score", "setting": "[1]", "value": 0.00}, {"measurement": "Sting score, Lower arm, left", "setting": "1 mild sting, 2 definite sting", "value": 0}]}, {"smiles": "CC(C)[C@@H]1CC[C@@H](C)C[C@H]1O", "note": "(racemic) [DL-Menthol, DL menthol]", "values": [{"measurement": "Sting score, Left calf", "setting": "[1]", "value": 0}, {"measurement": "Sting score, Left cheek (face)", "setting": "0 no sting, 1 mild sting, 2 definite sting, SPF15 sunscreen base, skin location left cheek (face)", "value": 0}, {"measurement": "Sting score, Left side of chest, underarm", "setting": "0 no sting, 1 mild sting, 2 definite sting, SPF15 sunscreen base, skin location left side of chest, underarm", "value": 0}, {"measurement": "Sting score, Left side of lips, upper and lower", "setting": "0 no sting, 1 mild sting, 2 definite sting, SPF15 sunscreen base, skin location left side of lips, upper and lower", "value": 0}, {"measurement": "Sting score, Right arm joint", "setting": "0 no sting, 1 mild sting, 2 definite sting, SPF15 sunscreen base, skin location right arm joint", "value": 0.75}, {"measurement": "Sting score, Right cheek (face)", "setting": "0 no sting, 1 mild sting, 2 definite sting, SPF15 sunscreen base, skin location right cheek (face)", "value": 0}, {"measurement": "Sting score, Right side of chest, underarm", "setting": "0 no sting, 1 mild sting, 2 definite sting, SPF15 sunscreen base, skin location right side of chest, underarm", "value": 0}, {"measurement": "Sting score, Stomach", "setting": "0 no sting, 1 mild sting, 2 definite sting, SPF15 sunscreen base, skin location stomach", "value": 0}, {"measurement": "Average Sting Score", "setting": "[1]", "value": 0.23}, {"measurement": "Sting score, Lower arm, left", "setting": "1 mild sting, 2 definite sting", "value": 0}, {"measurement": "Reduction of the stinging sensation (in words)", "value": "second most effective compound tested"}]}, {"smiles": "[Cs+].[I-]", "note": "[CsI, cesium iodide, reference compound]", "values": [{"measurement": "Sting score, Upper arm, left", "setting": "[1]", "value": 2}, {"measurement": "Average Sting Score", "setting": "[1]", "value": 2.00}, {"measurement": "Reduction of the stinging sensation (in words)", "value": "did not appreciably reduce the stinging sensation"}]}]}
